# Test system: not given
# Test: not given
# Conditions: not given
row,SMILES,melting point
1,"Nc1nc2ccc(NC(=O)CNC(=O)[C@@H](Cc3ccccc3)NS(=O)(=O)Cc3ccccc3)cc2s1 [Example 39, (2R)-N-{2-[(2-Amino-1,3-benzothiazol-6-yl)amino]-2-oxoethyl}-2-[(benzylsulfonyl)amino]-3-phenylpropanamide]",127 to 130 °C
2,"Nc1ncnc2ccc(NC(=O)[C@@H]3CCCN3C(=O)CNC(c3ccccc3)(c3ccccc3)c3ccccc3)cc12 [Example 42, (2S)-N-(4-amino-6-quinazolinyl)-1-{2-[(triphenylmethyl)amino]acetyl}-2-pyrrolidinecarboxamide]",> 250 °C
3,"CC(C)(C)OC(=O)N[C@@H](C(=O)N1CCC[C@H]1C(=O)NC1CCc2n[nH]cc2C1)C(c1ccccc1)c1ccccc1 (stereo partly drawn) [Example 55, tert-Butyl (1R)-1-benzhydryl-2-oxo-2-{(2S)-2-[(4,5,6,7-tetrahydro-2H-indazol-5-ylamino)carbonyl]pyrrolidinyl}ethylcarbamate]",119 to 122 °C
4,"Nc1ncc2c(n1)CCC(CNC(=O)[C@@H]1CCCN1C(=O)[C@@H](CC1CCCCC1)NS(=O)(=O)Cc1ccccc1)C2 (stereo partly drawn) [Example 57, (2S)-N-[(2-Amino-5,6,7,8-tetrahydro-6-quinazolinyl)methyl]-1-{(2R)-2-[(benzylsulfonyl)amino]-3-cyclohexylpropanoyl}-2-pyrrolidinecarboxamide]",118 to 121 °C
5,"O=C(NCC1CCc2n[nH]cc2C1)[C@@H]1CCCN1C(=O)[C@@H](CC1CCCCC1)NS(=O)(=O)Cc1ccccc1 (stereo partly drawn) [Example 58, (2S)-1-{(2R)-2-[(Benzylsulfonyl)amino]-3-cyclohexylpropanoyl}-N-(4,5,6,7-tetrahydro-2H-indazol-5-ylmethyl)-2-pyrrolidinecarboxamide]",100 to 103 °C
6,"CC(C)(C)OC(=O)N[C@H](Cc1ccc(Cl)c(Cl)c1)C(=O)N1CCC[C@H]1C(=O)NCC1CCc2n[nH]cc2C1 (stereo partly drawn) [Example 59, tert-Butyl (1R)-1-(3,4-dichlorobenzyl)-2-oxo-2-((2S)-2-{[(4,5,6,7-tetrahydro-2H-indazol-5-ylmethyl)amino]carbonyl}pyrrolidinyl)ethylcarbamate]",100 to 103 °C
7,"CC(C)(C)OC(=O)N[C@H](Cc1ccc(Cl)c(Cl)c1)C(=O)N1CCC[C@H]1C(=O)NCC1CCc2nc(N)ncc2C1 (stereo partly drawn) [Example 61, tert-Butyl (1R)-2-[(2S)-2-({[(2-amino-5,6,7,8-tetrahydro-6-quinazolinyl)methyl]amino}carbonyl)pyrrolidinyl]1-(3,4dichlorobenzyl)-2-oxoethylcarbamate]",110 to 113 °C
8,"O=C(NC1CCc2c[nH]cc2C1)[C@@H]1CCCN1C(=O)[C@@H](CC1CCCCC1)NS(=O)(=O)Cc1ccccc1 (stereo partly drawn) [Example 63, (2S)-1-{(2R)-2-[(Benzylsulfonyl)amino]-3-cyclohexylpropanoyl}-N-(4,5,6,7-tetrahydro-2H-isoindol-5-yl)-2-pyrrolidinecarboxamide]",106 to 109 °C
9,"CC(C)(C)OC(=O)N[C@@H](C(=O)N1CCC[C@H]1C(=O)NCC1CCc2n[nH]cc2C1)C(c1ccccc1)c1ccccc1 (stereo partly drawn) [Example 64, tert-Butyl (1R)-1-benzhydryl-2-oxo-2-((2S)-2-{[(4,5,6,7-tetrahydro-2H-indazol-5-ylmethyl)amino]carbonyl}pyrrolidinyl)ethylcarbamate]",113 to 116 °C
10,"CC(C)(C)OC(=O)N[C@@H](C(=O)N1CCC[C@H]1C(=O)NCC1CCc2nc(N)ncc2C1)C(c1ccccc1)c1ccccc1 (stereo partly drawn) [Example 67, tert-Butyl (1R)-2-[(2S)-2-({[(2-amino-5,6,7,8-tetrahydro-6-quinazolinyl)methyl]amino}carbonyl)pyrrolidinyl]-1-benzhydryl-2-oxoethylcarbamate]",127 to 130 °C
11,"Nc1nc2c(s1)CC(CNC(=O)[C@@H]1CCCN1C(=O)[C@@H](CC1CCCCC1)NS(=O)(=O)Cc1ccccc1)CC2 (stereo partly drawn) [Example 69, (2S)-N-[(2-Amino-4,5,6,7-tetrahydro-1,3-benzothiazol-6-yl)methyl]-1-{(2R)-2-[(benzylsulfonyl)amino]-3-cyclohexylpropanoyl}-2-pyrrolidinecarboxamide]",203 to 205 °C
12,"CC(C)(C)OC(=O)CN(C(=O)OC(C)(C)C)[C@H](CC1CCCCC1)C(=O)N1CCC[C@H]1C(=O)NC1CCc2nc(N)sc2C1 (stereo partly drawn) [Example 70, tert-Butyl 2-[[(1R)-2-((2S)-2-{[(2-amino-4,5,6,7-tetrahydro-1,3-benzothiazol-6-yl)amino]carbonyl}pyrrolidinyl)-1-(cyclohexylmethyl)-2-oxoethyl](tert-butoxycarbonyl)amino]acetate]",95 to 101 °C

# Molecular target: T1, trypsin (UniProt P00760)
# T1 construct: Trypsin (6000 E/mg prot; Sigma): dissolved in distilled water to give a stock solution of 300 E/mL
# T1 sequence (P00760 1-246): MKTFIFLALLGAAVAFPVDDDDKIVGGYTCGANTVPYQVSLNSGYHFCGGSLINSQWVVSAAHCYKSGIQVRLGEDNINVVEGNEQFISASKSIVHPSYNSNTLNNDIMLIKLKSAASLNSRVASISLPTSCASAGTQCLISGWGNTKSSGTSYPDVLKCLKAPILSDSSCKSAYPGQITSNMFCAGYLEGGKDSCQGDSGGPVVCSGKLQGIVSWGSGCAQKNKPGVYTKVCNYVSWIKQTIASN
# Test: Determination of trypsin Ki (chromogenic substrate S-2222)
# Format: biochemical
# Conditions: substrate S-2222, pH 7.5, 25° C.
# Method: The enzyme inhibitory effect of the compounds can be identified by determination of inhibition constant Ki. It denotes the degree of dissociation of the enzyme-inhibitor complex. Low dissociation constant means high potency of inhibitor. Ki can be determined during reaction of the enzyme with a specific chromogenic substrate which under hydrolysis by the enzyme develops color. Reaction in time is recorded by spectrophotometry and Ki is calculated from kinetic parameters (Vmax, Km, reaction rate).
# 2. Determination of Trypsin Ki
# The ability of a compound to act as an inhibitor of trypsin catalytic activity was assessed by determination of Ki.
# Buffer: HBSA, pH 7.5 (10 mM Hepes, 150 mM NaCl, 0.1% w/v bovine serum albumin)
# Substrate (S-2222: N-benzoyl-Ile-Glu-Gly-Arg-pNA HCl, 25 mg; Chromogenix): dissolved in distilled water to 2 mM concentration. (Km is 21 μM)
# Trypsin (6000 E/mg prot.; Sigma): dissolved in distilled water to give a stock solution of 300 E/mL.
# Inhibitors: were dissolved in DMSO (10 mM stock solution) and diluted with distilled water to working solution (the highest final concentration of DMSO was 10%).
# 50 μL of buffer, 50 μL of test compound in water (final concentrations from 50 to 300 μM) and 50 μL of trypsin (3 mE/mL f.c.) were incubated for 15 minutes at room temperature. The reaction was started with 50 μL of S-2222 (50 μM or 100 μM f.c.) and the absorbance of each sample at 405 nm (at 25° C.) was measured in triplicates every 10 seconds for a period of 15 minutes using a microtiter plate reader (Tecan Sunrise).
# Trypsin activity was determined from the change in absorbance in the linear part of velocity graph. Ki was calculated according to Cheng and Prussof (Biochem Pharmacol, 1973) where Ki is, IC50/(1+S/Km). The Km for the substrate was determined under test conditions with at least 6 substrate concentrations varying around Km and calculated with the non-linear regression program Curve expert.
row,SMILES,Ki
1,NC(C(=O)N1CCCC1C(=O)NCC1CCc2n[nH]cc2C1)C(c1ccccc1)c1ccccc1 (stereo not shown),217 µM

# Reference: patent US7112590B2, “Thrombin inhibitors” (LEK Pharmaceuticals d.d., priority 2000, dated 2006)
